Read-outs that look alike come from different tables or passages of the source.
Assays:
Assay type in all cases: in vivo
wheat (GA-tolerant) = system: wheat (GA-tolerant)
Procedure: (§1) The trials were carried out under greenhouse conditions (test pots, diameter 8 cm, spray application using 300 l of water/hectare, 2 repetitions, 6 to 8 plants per pot).
(§2) At the time of application, the harmful plants were at the 2-4-leaf growth stage.

Matricaria chamomilla = test: Greenhouse trial: herbicidal efficacy, Matricaria chamomilla; conditions: post-emergence 2-4-leaf, 14 days after application, g of ai/ha: A1.1 100, B1.1 5, C5 1.25, C24 12.5, C9 7.5, C32 62.5, C37 5, C58 5, C60 10, C61 25, C66 0.375, C71 0.5, C74 0.375, C42 125, mixtures at same rates
Procedure: as §1
(§3) At the time of application, the harmful plants were at the 2-4-leaf growth stage. The application rates of the herbicidally active compounds used on their own or in combinations are listed in the results tables.
(§4) Scoring was by visual comparison of the treated with the untreated controls (0-100% scale, 14 days after the application. The results (means for all plants per pot and means of two repetitions per pot and treatment) are listed in Tables 4 to 8 below.
(§5) 4.2 Abbreviations used in Tables 4 to 6application rate g/ai=application rate in grams of active compound per hectare • ai=active ingredient (of an active compound content of 100%) • GA=glufosinate-ammonium • wheat tolerant • to GA=GA-tolerant wheat (GMO) • E^C=expected value according to Colby, (E^C=A+B−A×B/100)= • =for ternary combinations: (A+B)+C−(A+B)×C/100 • E^A=expected value according to the addition method (E^A=A+B) • Δ=difference (%) between observed value —%—vs. expected value (%) (observed value minus expected value) • examination: observed values for (A), (B) and (A)+(B) in % • scoring: observed value (%) greater>than E^C/E^A:->synergism (+Δ) • observed value (%) equal to =E^C/E^A->additive effect (+−0Δ) • observed value (%) smaller<than E^A/E^C->antagonism (−Δ)

Viola arvensis = test: Greenhouse trial: herbicidal efficacy, Viola arvensis; conditions: post-emergence 2-4-leaf, 14 days after application, g of ai/ha: A1.1 100, B1.1 5, C7 100, C25 1.25, C52 2.5, C43 100, C57 5, mixtures at same rates
Procedure: as §1, §2

Setaria viridis = test: Greenhouse trial: herbicidal efficacy, Setaria viridis; conditions: post-emergence 2-4-leaf, 14 days after application
Procedure: as §1, §3, §4, §5

Lolium multiflorum = test: Greenhouse trial: herbicidal efficacy, Lolium multiflorum; conditions: post-emergence 2-4-leaf, 14 days after application, g of ai/ha: A1.1 100, B1.1 5, C62 1.25, C4 60, mixtures at same rates
Procedure: as §1, §3, §4, §5

[1] = system: Brassica napus (volunteer weed); test: Greenhouse trial: herbicidal efficacy, Brassica napus; conditions: post-emergence 2-4-leaf, 14 days after application, g of ai/ha: A1.1 100, B1.1 5, C12 12.5, C18 50, mixtures at same rates
Procedure: as §1, §3, §4, §5

[2] = Table 4, greenhouse, post-emergence, 14 days after application, g of ai/ha: A1.1 100, B1.1 5, C5 1.25, C24 12.5, C9 7.5, C32 62.5, C37 5, C58 5, C60 10, C61 25, C66 0.375, C71 0.5, C74 0.375, C42 125, mixtures at same rates
[3] = Table 5, greenhouse, post-emergence, 14 days after application, g of ai/ha: A1.1 100, B1.1 5, C7 100, C25 1.25, C52 2.5, C43 100, C57 5, mixtures at same rates
[4] = g of ai/ha: A1.1 100, line r12 5, C28 50, C40 1, C43 100, C13 50, mixtures (100 + 5) + partner rate
[5] = Table 7, greenhouse, post-emergence, 14 days after application, g of ai/ha: A1.1 100, line r12 5, C28 50, C40 1, C43 100, C13 50, mixtures (100 + 5) + partner rate
[6] = Table 8, greenhouse, post-emergence, 14 days after application, g of ai/ha: A1.1 100, B1.1 5, C62 1.25, C4 60, mixtures at same rates
[7] = Table 6, greenhouse, post-emergence, 14 days after application, g of ai/ha: A1.1 100, B1.1 5, C12 12.5, C18 50, mixtures at same rates

SMILES: CNC1=C(c2cccc(C(F)(F)F)c2)C(=O)C(c2ccccc2)O1 (stereo not drawn) [(C32) flurtamone, flurtamone]
- Damage to crop plants (%) wheat (GA-tolerant) (wheat (GA-tolerant); [2]): 15%
- Herbicidal efficacy (%) Matricaria chamomilla (Matricaria chamomilla): 25%

SMILES: CCc1cc(C)cc(CC)c1-c1c(OC(=O)C(C)(C)C)n2n(c1=O)CCOCC2 [(C58) pinoxaden, pinoxaden]
- Damage to crop plants (%) wheat (GA-tolerant) (wheat (GA-tolerant); [2]): 0%
- Herbicidal efficacy (%) Matricaria chamomilla (Matricaria chamomilla): 0%

SMILES: COc1ncc(F)c2nc(S(=O)(=O)Nc3c(F)cccc3F)nn12 [(C25) florasulam, florasulam]
- Herbicidal efficacy (%) Viola arvensis (Viola arvensis): 20%
- Damage to crop plants (%) wheat (GA-tolerant) (wheat (GA-tolerant); [3]): 0%

SMILES: O=C(O)COc1ccc(Cl)cc1Cl [(C13) 2,4-D, 2,4-D]
- Herbicidal efficacy (%) Setaria viridis (Setaria viridis; [4]): 0%
- Damage to crop plants (%) wheat (GA-tolerant) (wheat (GA-tolerant); [5]): 0%

SMILES: N#Cc1cc(Br)c(O)c(Br)c1 [(C7) bromoxynil, bromoxynil]
- Herbicidal efficacy (%) Viola arvensis (Viola arvensis): 20%
- Damage to crop plants (%) wheat (GA-tolerant) (wheat (GA-tolerant); [3]): 0%

SMILES: COc1nc(C)nc(=NC(=O)NS(=O)(=O)c2ccccc2C(=O)O)[nH]1 [(C74) metsulfuron, metsulfuron]
- Damage to crop plants (%) wheat (GA-tolerant) (wheat (GA-tolerant); [2]): 0%

SMILES: COc1cnc(OC)n2nc(NS(=O)(=O)c3c(OCC(F)F)cccc3C(F)(F)F)nc12 [(C57) penoxulam, penoxsulam]
- Herbicidal efficacy (%) Viola arvensis (Viola arvensis): 5%
- Damage to crop plants (%) wheat (GA-tolerant) (wheat (GA-tolerant); in vivo): 0%

SMILES: CCOC(=O)[C@@H](C)Oc1ccc(Oc2nc3ccc(Cl)cc3o2)cc1 [(C24) fenoxaprop-p-et., fenoxaprop-P-ethyl]
- Damage to crop plants (%) wheat (GA-tolerant) (wheat (GA-tolerant); [2]): 0%
- Herbicidal efficacy (%) Matricaria chamomilla (Matricaria chamomilla): 0%

SMILES: CCOC(=O)C1=NN(c2ccc(Cl)cc2Cl)C(C)(C(=O)OCC)C1 (stereo not drawn) [(C4) mefenpyr-di-et, mefenpyr(-diethyl)]
- Damage to crop plants (%) wheat (GA-tolerant) (wheat (GA-tolerant); [6]): 0%
- Herbicidal efficacy (%) Lolium multiflorum (Lolium multiflorum): 0%

SMILES: CCCOc1nn(C(=O)[N-]S(=O)(=O)c2ccccc2C(=O)OC)c(=O)n1C.[Na+] [(C60) propoxycarbazone-Na, propoxycarbazone-sodium]
- Damage to crop plants (%) wheat (GA-tolerant) (wheat (GA-tolerant); [2]): 10%
- Herbicidal efficacy (%) Matricaria chamomilla (Matricaria chamomilla): 10%

SMILES: COC(=O)c1csc(C)c1S(=O)(=O)NC(=O)n1nc(OC)n(C)c1=O [(C66) thiencarbazone-me, thiencarbazone-methyl]
- Damage to crop plants (%) wheat (GA-tolerant) (wheat (GA-tolerant); in vivo): 5%
- Herbicidal efficacy (%) Matricaria chamomilla (Matricaria chamomilla): 10%

SMILES: CP(=O)(O)CCC(N)C(=O)O (stereo not drawn) [(A1.1) GA, glufosinate-ammonium]
- Herbicidal efficacy (%) Setaria viridis (Setaria viridis; g of ai/ha: A1.1 100, C28 50, C40 1, C43 100, C13 50, mixtures (100 + 5) + partner rate): 90%
- Herbicidal efficacy (%) Viola arvensis (Viola arvensis): 50%
- Damage to crop plants (%) wheat (GA-tolerant) (wheat (GA-tolerant); [2]): 10%
- Damage to crop plants (%) wheat (GA-tolerant) (wheat (GA-tolerant); [3]): 10%
- Damage to crop plants (%) wheat (GA-tolerant) (wheat (GA-tolerant); [7]): 10%
- Damage to crop plants (%) wheat (GA-tolerant) (wheat (GA-tolerant); [5]): 10%
- Damage to crop plants (%) wheat (GA-tolerant) (wheat (GA-tolerant); [6]): 10%
- Herbicidal efficacy (%) Matricaria chamomilla (Matricaria chamomilla): 50%
- Herbicidal efficacy (%) Lolium multiflorum (Lolium multiflorum): 15%
- Herbicidal efficacy (%) Brassica napus [1]: 15%

SMILES: COc1nc(C)nc(N(C)C(=O)NS(=O)(=O)c2ccccc2C(=O)O)n1 [(C71) tribenuron, tribenuron]
- Damage to crop plants (%) wheat (GA-tolerant) (wheat (GA-tolerant); [2]): 0%
- Herbicidal efficacy (%) Matricaria chamomilla (Matricaria chamomilla): 0%

SMILES: COc1cc(OC)nc(NC(=O)NS(=O)(=O)N(C)S(C)(=O)=O)n1 [(C5) amidosulfuron, amidosulfuron]
- Damage to crop plants (%) wheat (GA-tolerant) (wheat (GA-tolerant); in vivo): 0%
- Herbicidal efficacy (%) Matricaria chamomilla (Matricaria chamomilla): 45%

SMILES: CC(C)c1ccc(NC(=O)N(C)C)cc1 [(C42) isoproturon, isoproturon]
- Damage to crop plants (%) wheat (GA-tolerant) (wheat (GA-tolerant); in vivo): 0%
- Herbicidal efficacy (%) Matricaria chamomilla (Matricaria chamomilla): 15%

SMILES: COc1cc(OC)n2nc(NS(=O)(=O)c3c(C(F)(F)F)ccnc3OC)nc2n1 [(C62) pyroxulam, pyroxsulam]
- Damage to crop plants (%) wheat (GA-tolerant) (wheat (GA-tolerant); in vivo): 10%
- Herbicidal efficacy (%) Lolium multiflorum (Lolium multiflorum): 40%

SMILES: COC(=O)c1ccc(CNS(C)(=O)=O)cc1S(=O)(=O)NC(=O)Nc1nc(OC)cc(OC)n1 [(C52) mesosulfuron-me, mesosulfuron-methyl]
- Herbicidal efficacy (%) Viola arvensis (Viola arvensis): 0%
- Damage to crop plants (%) wheat (GA-tolerant) (wheat (GA-tolerant); in vivo): 0%

SMILES: CC(C)N(C(=O)COc1nnc(C(F)(F)F)s1)c1ccc(F)cc1 [(C28) flufenacet, flufenacet (thiafluamide)]
- Herbicidal efficacy (%) Setaria viridis (Setaria viridis; [4]): 20%

SMILES: COCc1cnc(C2=NC(C)(C(C)C)C(=O)N2)c(C(=O)O)c1 (stereo not drawn) [(C37) imazamox, imazamox]
- Damage to crop plants (%) wheat (GA-tolerant) (wheat (GA-tolerant); [2]): 15%
- Herbicidal efficacy (%) Matricaria chamomilla (Matricaria chamomilla): 0%

SMILES: C#CCOC(=O)[C@@H](C)Oc1ccc(Oc2ncc(Cl)cc2F)cc1 [(C12) clodinafop, clodinafop-propargyl]
- Damage to crop plants (%) wheat (GA-tolerant) (wheat (GA-tolerant); in vivo): 0%
- Herbicidal efficacy (%) Brassica napus [1]: 0%

SMILES: COC(=O)c1ccc(I)cc1S(=O)(=O)[N-]C(=O)Nc1nc(C)nc(OC)n1.[Na+] [(C40) iodosulfuron-me-Na, iodosulfuron-methyl-sodium]
- Herbicidal efficacy (%) Setaria viridis (Setaria viridis; [4]): 10%
- Damage to crop plants (%) wheat (GA-tolerant) (wheat (GA-tolerant); [5]): 0%

SMILES: CCOC(=O)C(Cl)Cc1cc(-n2nc(C)n(C(F)F)c2=O)c(F)cc1Cl (stereo not drawn) [(C9) carfentrazone, carfentrazone-ethyl]
- Damage to crop plants (%) wheat (GA-tolerant) (wheat (GA-tolerant); [2]): 10%
- Herbicidal efficacy (%) Matricaria chamomilla (Matricaria chamomilla): 0%

SMILES: Cc1cc(Cl)ccc1OCC(=O)O [(C43) MCPA, MCPA]
- Herbicidal efficacy (%) Setaria viridis (Setaria viridis; [4]): 0%
- Herbicidal efficacy (%) Viola arvensis (Viola arvensis): 10%
- Damage to crop plants (%) wheat (GA-tolerant) (wheat (GA-tolerant); [3]): 0%
- Damage to crop plants (%) wheat (GA-tolerant) (wheat (GA-tolerant); [5]): 0%

SMILES: COC(=O)c1nc(-c2ccc(Cl)c(OC)c2F)cc(N)c1Cl [(B1.1), methyl 4-amino-3-chloro-6-(4-chloro-2-fluoro-3-methoxyphenyl)pyridine-2-carboxylate]
- Herbicidal efficacy (%) Viola arvensis (Viola arvensis): 50%
- Damage to crop plants (%) wheat (GA-tolerant) (wheat (GA-tolerant); in vivo): 0%
- Herbicidal efficacy (%) Matricaria chamomilla (Matricaria chamomilla): 20%
- Herbicidal efficacy (%) Lolium multiflorum (Lolium multiflorum): 0%
- Herbicidal efficacy (%) Brassica napus [1]: 60%

SMILES: O=C(Nc1ccc(F)cc1F)c1cccnc1Oc1cccc(C(F)(F)F)c1 [(C18) diflufenican, diflufenican]
- Damage to crop plants (%) wheat (GA-tolerant) (wheat (GA-tolerant); [7]): 10%
- Herbicidal efficacy (%) Brassica napus [1]: 30%

SMILES: Cc1nn(C)c(O)c1C(=O)c1ccc(C(F)(F)F)cc1S(C)(=O)=O [(C61) pyrasulfutole, pyrasulfutole]
- Damage to crop plants (%) wheat (GA-tolerant) (wheat (GA-tolerant); in vivo): 0%
- Herbicidal efficacy (%) Matricaria chamomilla (Matricaria chamomilla): 50%

Reference: US9253985B2, “Herbicidal composition for tolerant or resistant cereal crops” (priority 2010, dated 2016)
